Measurements reported in ChEMBL document CHEMBL1144769 (J Med Chem, 2008).
The source made the active and inactive calls. The calls are words filed in the database; no cut-off is given here.

Columns and labels:
[1] = target: T1, Prostaglandin G/H synthase 2 (Homo sapiens, UniProt P35354); assay: Inhibition of COX2
T1 sequence (P35354 whole entry): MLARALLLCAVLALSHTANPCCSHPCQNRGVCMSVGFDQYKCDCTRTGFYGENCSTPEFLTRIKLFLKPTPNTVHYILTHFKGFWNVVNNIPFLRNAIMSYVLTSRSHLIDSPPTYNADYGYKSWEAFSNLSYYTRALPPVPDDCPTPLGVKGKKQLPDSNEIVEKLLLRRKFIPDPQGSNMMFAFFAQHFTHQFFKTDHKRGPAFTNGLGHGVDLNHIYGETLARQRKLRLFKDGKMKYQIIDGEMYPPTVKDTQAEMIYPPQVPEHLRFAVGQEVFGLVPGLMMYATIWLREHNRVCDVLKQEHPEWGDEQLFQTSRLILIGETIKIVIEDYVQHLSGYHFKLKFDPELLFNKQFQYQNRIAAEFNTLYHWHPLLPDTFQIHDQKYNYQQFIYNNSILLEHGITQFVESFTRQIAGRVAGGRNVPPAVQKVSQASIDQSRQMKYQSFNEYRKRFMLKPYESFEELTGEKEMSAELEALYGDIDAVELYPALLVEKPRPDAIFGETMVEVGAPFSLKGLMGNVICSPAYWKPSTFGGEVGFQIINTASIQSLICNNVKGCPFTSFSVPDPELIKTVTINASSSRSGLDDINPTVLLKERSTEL

[2] = target: T2, Prostaglandin G/H synthase 1 (Homo sapiens, UniProt P23219); assay: Inhibition of COX1
[3] = target: T2, Prostaglandin G/H synthase 1; assay: Inhibition of COX1 at 100 uM
[4] = Cmax in Sprague-Dawley rat at 30 mg/kg, po; type: ADME, organism-based; set-up: dose 30 mg/kg, route oral; details: in vivo
Rattus norvegicus [5] = assay: Induction of gastric ulcer formation in Sprague-Dawley rat at 30 mg/kg, po administered daily for 1 week; type: organism-based, Stomach; set-up: dose 30 mg/kg, route oral; details: in vivo, 168 h
Rattus norvegicus [6] = assay: Analgesic activity in Sprague-Dawley rat assessed as reduction in formalin-induced pain at 30 mg/kg, po; type: functional, organism-based; set-up: dose 30 mg/kg
Mus musculus [7] = assay: Acute toxicity in ICR mouse upto 300 mg/kg, po upto 14 days; type: organism-based; set-up: dose 300 mg/kg, route oral; details: in vivo, 336 h
Mus musculus [8] = assay: Analgesic activity in ICR mouse assessed as reduction in number of acetic acid-induced writhing at 30 mg/kg, po after 10 mins; type: functional, organism-based; set-up: dose 30 mg/kg
Mus musculus [9] = assay: Analgesic activity in ICR mouse assessed as reduction in number of acetic acid-induced writhing at 10 mg/kg, po after 10 mins; type: functional, organism-based; set-up: dose 10 mg/kg
Rattus norvegicus [10] = assay: Induction of gastric ulcer formation in Sprague-Dawley rat at 30 mg/kg, po after 5 hrs; type: organism-based, Stomach; set-up: dose 30 mg/kg, route oral; details: in vivo
Rattus norvegicus [11] = assay: Induction of gastric ulcer formation in Sprague-Dawley rat at 10 mg/kg, po after 5 hrs; type: organism-based, Stomach; set-up: dose 10 mg/kg, route oral; details: in vivo

T2 sequence (P23219 whole entry): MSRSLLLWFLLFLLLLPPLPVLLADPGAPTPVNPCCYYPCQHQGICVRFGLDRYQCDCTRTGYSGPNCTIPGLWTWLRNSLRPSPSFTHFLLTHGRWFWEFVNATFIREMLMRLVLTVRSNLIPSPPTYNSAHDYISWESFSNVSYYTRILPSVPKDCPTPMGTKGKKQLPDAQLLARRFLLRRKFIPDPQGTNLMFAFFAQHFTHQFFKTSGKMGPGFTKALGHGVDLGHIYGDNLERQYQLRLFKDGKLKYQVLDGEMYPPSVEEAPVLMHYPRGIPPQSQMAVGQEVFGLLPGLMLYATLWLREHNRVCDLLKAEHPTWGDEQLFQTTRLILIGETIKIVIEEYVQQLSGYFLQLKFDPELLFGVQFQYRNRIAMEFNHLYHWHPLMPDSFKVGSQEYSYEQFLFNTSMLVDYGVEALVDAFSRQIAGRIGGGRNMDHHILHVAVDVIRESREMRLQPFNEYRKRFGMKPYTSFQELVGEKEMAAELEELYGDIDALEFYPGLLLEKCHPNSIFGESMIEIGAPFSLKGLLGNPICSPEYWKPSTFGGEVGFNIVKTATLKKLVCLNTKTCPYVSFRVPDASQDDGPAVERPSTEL

Row | IC50 [1] [µM] | IC50 [2] [µM] | inhibition [3] [%] | Compound | also measured
1 | > 100 | 72 |  | Nc1ccccc1NC(=O)c1cccc(C(F)(F)F)c1 | 
2 | > 100 | 10 |  | Nc1ccc(C(=O)Nc2ccc(C(F)(F)F)cn2)cc1 | 
3 |  |  | 53 | Cc1ccc(C(=O)Nc2ccc(N)cc2)cc1 | 
4 | > 100 | 19 | 70 | Nc1cccc(C(=O)Nc2ccc(C(F)(F)F)cc2)c1 | 
5 | > 100 | > 100 |  | Nc1ccc(NC(=O)c2ccccc2C(F)(F)F)cc1 | 
6 | > 100 | > 100 |  | Nc1ccc(C(=O)Nc2cccc(C(F)(F)F)c2)cc1 | 
7 |  |  | 40 | Nc1ccc(C(=O)Nc2ccccc2)cc1 | 
8 | > 100 | > 100 | 32 | Nc1ccccc1C(=O)Nc1ccccc1C(F)(F)F | 
9 | > 100 | > 100 |  | Nc1ccccc1NC(=O)c1ccccc1C(F)(F)F | 
10 |  |  | 54 | Nc1ccc(NC(=O)c2ccccc2)cc1 | 
11 | > 100 | > 100 |  | Nc1ccnc(NC(=O)c2ccc(C(F)(F)F)cc2)c1 | 
12 |  |  | 64 | Nc1ccccc1C(=O)Nc1ccccc1 | 
13 | > 100 | 88 | 53 | Nc1ccccc1NC(=O)c1ccc(C(F)(F)F)cc1 | 
14 | > 100 | > 100 |  | Nc1cccnc1NC(=O)c1cccc(C(F)(F)F)c1 | 
15 |  |  |  | CC(=O)Oc1ccccc1C(=O)O [ASPIRIN] | Activity (Rattus norvegicus [10]): Active
16 |  |  | 56 | Cc1ccc(NC(=O)c2ccc(N)cc2)cc1 | 
17 |  |  | 49 | Nc1ccc(NC(=O)c2ccc(Cl)cc2)cc1 | 
18 | 65 | 0.028 |  | COc1ccc(-c2nc(C(=O)N3CCN(C)CC3)sc2-c2ccc(OC)cc2)cc1 [FR-122047] | 
19 | > 100 | 10 | 90 | Nc1ccccc1C(=O)Nc1cccc(C(F)(F)F)c1 | 
20 |  |  | 31 | O=C(Nc1ccc(C(F)(F)F)cc1)c1ccccc1[N+](=O)[O-] | 
21 | > 100 | > 100 |  | Nc1ccnc(NC(=O)c2cccc(C(F)(F)F)c2)c1 | 
22 | > 100 | > 100 |  | Nc1ccc(C(=O)Nc2ccccc2C(F)(F)F)cc1 | 
23 | > 100 | > 100 |  | Nc1cccc(C(=O)Nc2cccc(C(F)(F)F)c2)c1 | 

Row | IC50 [1] [µM] | IC50 [2] [µM] | inhibition [3] [%] | Compound | also measured
24 |  |  | 67 | Cc1cccc(NC(=O)c2ccccc2N)c1 | 
25 |  |  | 53 | Cc1ccccc1NC(=O)c1ccccc1N | 
26 |  |  | 52 | Nc1ccccc1C(=O)Nc1ccc(Cl)cc1 | 
27 | > 100 | 12 |  | Nc1ccc(NC(=O)c2cccc(C(F)(F)F)c2)nc1 | 
28 |  |  | 23 | CCN(C(=O)c1ccccc1N)c1ccc(Cl)cc1 | 
29 |  |  | 53 | Nc1ccc(C(=O)Nc2ccc(Cl)cc2)cc1 | 
30 | > 100 | 16 | 68 | Nc1ccccc1C(=O)Nc1ccc(C(F)(F)F)cc1 | 
31 | > 100 | 62 |  | Nc1ccc(NC(=O)c2cccc(C(F)(F)F)c2)cc1 | 
32 | > 100 | > 100 |  | Nc1cccc(C(=O)Nc2ccccc2C(F)(F)F)c1 | 
33 |  |  | 35 | COc1ccc(NC(=O)c2ccc(Cl)cc2)cc1 | 
34 | > 100 | 7.2 |  | Nc1cccc(NC(=O)c2cccc(C(F)(F)F)c2)c1 | 
35 |  |  | 57 | Cc1ccc(NC(=O)c2ccccc2N)cc1 | 
36 | > 100 | 29 | 63 | Nc1ccc(NC(=O)c2ccc(C(F)(F)F)cc2)cc1 | 
37 |  |  |  | COc1ccc2c(c1)c(CC(=O)O)c(C)n2C(=O)c1ccc(Cl)cc1 [INDOMETHACIN] | Activity (Rattus norvegicus [11]): Active; Activity (Mus musculus [9]): Active
38 |  |  | 5 | CCN(C(=O)c1ccccc1N)c1ccccc1 | 
39 | > 100 | 30 | 71 | Nc1ccc(C(=O)Nc2ccc(C(F)(F)F)cc2)cc1 | 
40 | > 100 | 94 |  | Nc1cccc(NC(=O)c2ccccc2C(F)(F)F)c1 | 
41 | > 100 | 14 | 76 | Nc1cccc(NC(=O)c2ccc(C(F)(F)F)cc2)c1 | 
42 | > 100 | > 100 |  | Nc1ccc(C(=O)Nc2ccc(C(F)(F)F)cc2)nc1 | 
43 | > 100 | > 100 |  | Nc1cccnc1NC(=O)c1ccc(C(F)(F)F)cc1 | 
44 |  |  | 13 | O=C(Nc1ccc(C(F)(F)F)cc1)c1cccc([N+](=O)[O-])c1 | 
45 |  |  | 23 | Cc1ccc(NC(=O)c2ccc(Cl)cc2)cc1 | 

Row | Compound | IC50 [1] [µM] | IC50 [2] [µM] | inhibition [3] [%] | also measured
46 | Nc1ccc(NC(=O)c2ccc(C(F)(F)F)cc2)nc1 | 210 | 0.8 |  | Cmax [4]: 12 µM; Activity (Rattus norvegicus [5]): Not Active; Activity (Rattus norvegicus [6]): Active; Activity (Mus musculus [7]): Non-toxic; Activity (Mus musculus [8]): Active; Activity (Mus musculus [9]): Active
47 | O=C(Nc1ccc(C(F)(F)F)cc1)c1ccc([N+](=O)[O-])cc1 |  |  | 0 | 
